Reference: US20230384333A1 (priority 2020, published 2023)
Several values for one entry are separate records, joined by “and”; a condition that tells them apart may be missing. Equal values may be shown once. Entries after “also recorded” stand apart in the source; their conditions may differ.

What was measured:
psychLight = experiment: Schild regression analysis in PSYLI2 cells; type: cell-based, human
Procedure: During imaging, […] of imaging media were added to each well of the assay plate. Wells were then imaged on a Lecia DMi8 using Leica Application Suite X (V3.6.0.20104) at 40×(N.A.=0.6) with 5 regions of interest (ROI) taken per well using the default 5 ROI pattern for each well with no bias to location and no overlap of the ROIs (exposure=350 ms, LED power=80%). Next, […] from the treatment plate was transferred to the assay plate for a final 1:1000 dilution of drug. All final drug treatments contained 0.1% DMSO. After 5 min of incubation, the same sites were re-imaged using the same settings. The data analysis method was the same as in agonist and antagonist mode.

psychLight1 [1] = target: T1, psychLight1 (Homo sapiens, UniProt P28223, E264Q/I181A); experiment: cell-based; type: cell-based; set-up: fluorescence intensity change, confocal with psychLight1: dose or concentration left out as unconfirmed; conditions: n=3
T1 sequence (P28223 whole entry I181A/E264Q, looked up): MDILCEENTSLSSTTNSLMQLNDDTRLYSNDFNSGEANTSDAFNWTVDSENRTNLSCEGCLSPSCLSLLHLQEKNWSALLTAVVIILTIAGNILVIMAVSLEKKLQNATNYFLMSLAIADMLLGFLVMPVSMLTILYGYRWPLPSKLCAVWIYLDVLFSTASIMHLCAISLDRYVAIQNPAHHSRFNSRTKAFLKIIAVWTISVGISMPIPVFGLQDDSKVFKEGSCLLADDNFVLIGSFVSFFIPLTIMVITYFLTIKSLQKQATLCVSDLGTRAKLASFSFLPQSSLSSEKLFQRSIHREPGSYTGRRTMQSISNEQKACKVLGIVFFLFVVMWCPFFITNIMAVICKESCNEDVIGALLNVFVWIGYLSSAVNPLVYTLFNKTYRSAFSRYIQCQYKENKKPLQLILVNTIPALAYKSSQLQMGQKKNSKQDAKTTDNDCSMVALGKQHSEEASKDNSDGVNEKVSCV
Procedure: HEK293T cells were grown in DMEM, supplemented with fetal bovine serum (FBS) and penicillin-streptomycin. Cells were trans-fected with Effectene according to the manufacturer's instructions. Prior to imaging, cells were washed with Hank's Balanced Salt Solution (HBSS) supplemented with 2 mM MgCl2 and 2 mM CaCl2). All images were collected in HBSS containing Mg^2+ and Ca^2+.
HEK293T cells were plated and transfected concurrently 24 h prior to each experiment using the QIAGEN Effectene Transfection
Dose-response experiments were performed using an Automate Perfusion System. Cells (HEK293T) were grown on 12 mm cover-slips and transfected with psychLight1. The coverslips were then placed into a coverslip holder and washed with 5 mL of HBSS containing 2 mM MgCl2 and 2 mM CaCl2). Cells were perfused first with 5 mL of 0.1% DMSO, then drugs in ascending concentrations from 1 pM to […] were added, with the concentration of DMSO being held constant at 0.10%. […] For the competition studies described in FIG. 19, HEK293T cells were prepared as described above; however, the cells were first exposed to 5 mL of 0.2% DMSO. […] Analysis was performed by taking 3 ROIs on the cell membrane using ImageJ and calculating the mean intensity for each ROI across the time-points. Finally, the DF/F was calculated using the average of the baseline (0.1 or 0.2% DMSO) and the average intensity between each dosage over the average of the baseline.

psychLight1 [2] = target: T1, psychLight1; type: cell-based
psychLight2 [3] = experiment: PSYLI2 high-content imaging, agonist mode; type: cell-based, human; set-up: dose or concentration left out as unconfirmed
C57BL/6J mice [4] = experiment: Locomotion assay; type: in vivo, mouse; conditions: i.p., multiple doses
Procedure: (§1) The HTR assay was performed as described previously using both male and female C57BL/6J mice (2 male and 2 female=4 total per treatment). The mice were obtained from The Jackson Laboratory (Sacramento, C.A.) and were approximately 8-weeks old at the time of the experiments. Compounds were administered (5 mL/kg, i.p.) using 0.9% saline as the vehicle. After injection, animals were placed into an empty cage (8″×13″×5″) and HTRs were videotaped, scored later by two blinded observers, and the results were averaged (interpersonnel kappas, Pearson correlation coefficient>0.91). Locomotion was assessed using AnyMaze automated tracking software.

psychLight2 [5] = type: cell-based, human
Procedure: Compounds unlikely to bind to the sensor should produce minimal to no response in either agonist or antagonist mode. Therefore, a ligand score was calculated as: […]

C57BL/6J mice [6] = experiment: Forced swim test (FST); type: in vivo, mouse
[7] = system: embryonic rat cortical neurons; experiment: Dendritogenesis (Sholl analysis) in cultured cortical neurons; type: cell-based
Procedure: For the dendritogenesis experiments conducted using cultured E18 cortical neurons, timed-pregnant Sprague Dawley rats were obtained from Charles River Laboratories (Wilmington, MA). Full culturing, staining, and analysis details were performed as previously described.

VMAT2-HET mice = experiment: Sucrose preference (anhedonia) test; type: in vivo, mouse
Procedure: Adult male and female wild-type (WT) and VMAT2 heterozygous (VMAT2-HET) mice were used for these experiments, and they were housed in a humidity- and temperature-controlled room on a 14:10 h light:dark cycle. Mice were housed individually 48 h prior to the experiment with ad libitum access to chow and water. For each day's experiment, bottles were prepared with water or a 1% sucrose solution and these were weighed just prior to the test. Two h prior to the beginning of the dark cycle, the home-cage water bottle was removed. One h after onset of the dark cycle, a pair of bottles was placed into the home-cage. The mouse was given 2 h to drink, after which the bottles were removed and weighed immediately. Approximately 1 h later, the home-cage water bottle was returned. […] Once criterion was achieved, the mouse was presented with the water-sucrose (W-S) pairing. The next day (day 1), mice were administered an acute injection of AAZ-A-154 (15 mg/kg, i.p.) and 5 min later were given the W-S pairing (i.e., day 1). Subsequent W-S pairings were presented on days 2 and 4, and then at 4-day intervals. Preference for the sucrose bottle was calculated as the volume of sucrose consumed minus the volume of water consumed, divided by the total volume of liquid consumed. Preference scores approaching “0” indicated no preference for sucrose or water, whereas positive scores signified a preference for sucrose and negative scores denoted a preference for water.

C57BL/6J mice [8] = experiment: Head-twitch response (HTR) assay; type: in vivo, mouse; conditions: i.p., multiple doses
Procedure: as §1

psychLight2 [9] = experiment: PSYLI2 high-content imaging, agonist mode; type: cell-based, human; conditions: 10 μM compound, hit limit 1 SD from vehicle
Procedure: (§2) High-Content Imaging Experiments. Glass bottom 96-well plates (P96-1.5H-N, Cellvis) were coated with 50 μg/mL of poly-D-lysine (Sigma, P6407-5MG) and 10 μg/mL laminin (Sigma, L2020) overnight in an incubator (37° C., 5% CO2). […] Immediately prior to an experiment, stock solutions of drugs in DMSO (10 mM) were first diluted 1:100 in imaging media distributed across an empty 96-well plate (treatment plate) in triplicates following a randomized plate map. […] Cells grown in a separate 96-well plate (assay plate) were gently washed (3×) with imaging media, and the wells were filled with an appropriate volume of imaging media for the respective experiment (vide infra).
(§3) For agonist mode, […] of imaging media was added to each well of the assay plate. Wells were then imaged on a Lecia DMi8 using Leica Application Suite X (V3.6.0.20104) at 40×(N.A.=0.6) with 5 regions of interest (ROI) taken per well using the default 5 ROI pattern for each well with no bias to location and no overlap of the ROIs (exposure=350 ms, LED power=80%). Next, 20 μL from the treatment plate was transferred to the assay plate for a total 1:1000 dilution of drug (10 μM drug, 0.1% DMSO). […] All final concentrations of drugs were 10 μM (0.1% DMSO) in agonist mode unless stated otherwise. After 5 min of incubation, the same sites were re-imaged using the same settings.
Once imaging was complete, the images were exported, put into a stack, and analyzed using ImageJ Fiji (ver. 1.51v) by using the rectangle function to draw an ROI around the cell membrane (one cell per image) on both the pre- and posttreatment images. ROI sizes within each plate were kept the same and saved to the ROI manager in ImageJ (ctrl+T). Images were then measured using the “multi measure” function in the ROI manager. Measurements were saved and exported. Analysis of the data was done by taking the average of each individual well's ROIs before and after drugs were added. Then the ΔF/F values for each well were calculated using the following equation: […]
as §2, with “Glass” for “High-Content Imaging Experiments. Glass”, “50 µg/mL” for “50 μg/mL”, “10 pg/mL of” for “10 μg/mL”, “were” for “were first”, “in triplicate” for “in triplicates”, “washed 3×” for “washed (3×)”
as §3, with “agonist mode experiments,” for “agonist mode,”, “media were” for “media was”, “20 pL” for “20 μL”, “plate containing” for “plate for”, “a” for “a total”, “(10 pM as the final concentration in” for “(10 μM drug,”
Once imaging was complete, the images were exported, and analyzed using self-written MATLAB script. Script will be deposit on to Github. In short, segmentation was performed on individual images and a mask highlighting the membrane of the HEK293T cells was generated. Pixel intensities were obtained from the mask-highlighted area and exported into Excel. The ΔF/F values for each well were calculated using the following equation: […]

[10] = system: GPCR-based sensors (dopamine, adrenergic, opioid, and serotonin receptors); type: cell-based; conditions: 10 μM AAZ-A-154, agonist and antagonist mode
psychLight2 [11] = type: cell-based, mouse

SMILES | Schild regression (pA2) outcome (psychLight) | fluorescence intensity change, confocal with psychLight1 (psychLight1 [1]) [%] | binding shown by competing off 5-HT (psychLight1 [2]) | fluorescence intensity change, high content imager with psychLight2 (psychLight2 [3]) [%] | locomotion (C57BL/6J mice [4]) | ligand score (psychLight2 [5]) | immobility in the forced swim test (C57BL/6J mice [6]; 20 mg/kg i.p.) | time course of antidepressant-like effects in FST (C57BL/6J mice [6]; single administration 20 mg/kg, tested 30 min and 1 week later) | dendritic arbor complexity (Sholl analysis) [7] | effect on dendritic growth in presence of ketanserin [7] | sucrose preference of WT animals (VMAT2-HET mice; 15 mg/kg i.p.) | persistence of anti-anhedonic effect (VMAT2-HET mice; VMAT2-HET mice, single injection 15 mg/kg, listed as AAZ, 15 mg/kg) | duration of beneficial behavioral effects (VMAT2-HET mice; rodents, single administration) | sucrose preference of VMAT2-HET mice after dosing (VMAT2-HET mice; single injection 15 mg/kg i.p.) | head-twitch response (HTR) (C57BL/6J mice [8]) | screen outcome in agonist mode (psychLight2 [9]) | selectivity across receptor-based sensors [10] | ΔpL2/tdT (psychLight2 to tdTomato ratio vs baseline) (psychLight2 [11])
COc1ccc2c(CCN(C)C)c[nH]c2c1 [6-MeO, 6-methoxy-N,N-dimethyltrypta-mine] | significantly less potent | −1.1±4.6 | capable of binding to the receptor despite the fact that they lack efficacy; also recorded: capable of binding to the receptor despite lacking efficacy; also recorded: can compete off 5-HT resulting in a reduction in psychLight fluorescence | −3.0±2.7 | – | – | – | – | – | – | – | – | – | – | – | – | – | –
COc1ccc2c(ccn2C[C@@H](C)N(C)C)c1.O=C(O)/C=C/C(=O)O [AAZ-A-154] | psychLight competitive antagonist | – | – | – | a high dose of the compound did decrease locomotion; also recorded: a high dose of AAZ-A-154 decreased locomotion; also recorded: only decreases locomotion at a very high dose (100 mg/kg) | favorable ligand score | decreased immobility | both rapid (30 min) and long-lasting (1 week) antidepressant-like effects | increased dendritic arbor complexity; also recorded: increases dendritic arbor complexity to a comparable extent as the fast-acting antidepressant ketamine | abrogated by the 5-HT2A antagonist ketanserin; also recorded: abolished by the 5-HT2R antagonist ketanserin | had no effect on WT animals; also recorded: did not modify sucrose preference in the WT animals | at least 12 days | > 1 week and > 2 week | sucrose preference that was indistinguishable from WT controls | did not produce any head-twitches, even up to doses as high as 100 mg/kg; also recorded: failed to produce any head-twitches, even up to doses as high as 100 mg/kg | decreased the intrinsic fluorescence of psychLight | high selectivity for 5-HT2 receptors | –
CP(C)C.F[P-](F)(F)(F)(F)F.F[P-](F)(F)(F)(F)F.NCCc1c[nH]c2ccc(O)cc12.[Ru+2].c1ccc(-c2ccccn2)nc1.c1ccc(-c2ccccn2)nc1 [RuBi-5-HT] | – | – | – | – | – | – | – | – | – | – | – | – | – | – | – | – | – | 111.2%±0.7%
